Data as given in patent US20050032724A1 (priority 2001, published 2005).
Entries after “also recorded” stand apart in the source; their conditions may differ. Where two headings read alike, the source gives them in different places.

Key:
[1] = tested on: human colon cancer cell line LS174T; assay: MTS cytotoxicity assay, growth inhibition, LS174T; assay type: cell-based; details: for IC50 (50% inhibition of cell growth): LS174T, 3 days treatment
Description: (§1) The human epithelial cervical cancer cell line KB 3-1 with two subclones (KB 3-1 (MDR1^+++) and KB 3-1 (MDR1^+++, CYP3A5)) and the bladder cancer cell line RT112, also with subclone (RT112 (MDR1^+, UGT1A1)), were cultured in Dulbecco's Modified Eagle Medium (DMEM) including 3.7 g/l NaHCO3, 4.5 g/l D-Glucose, 1.028 g/l N-Acetyl-L-Alanyl-L-glutamine and supplemented with 10% fetal bovine, 1 mM Na-pyruvate and 1% non-essential amino acids. The human colon cancer cell line LS174T was cultured in Dulbecco's modified Eagle medium containing L-glutamine, pyridoxine hydrochloride and 25 mM Hepes buffer without phenol red, supplemented with 10% fetal bovine, 1 mM Na-pyruvate and 1% non-essential amino acids. All cells were incubated at 37° C. with 5% CO2 in a humidified atmosphere.
(§2) Lower concentrated dilutions were prepared in PBS and cell culture medium.
(§3) Cells were seeded in 96-well culture plates 24 h prior to treatment. With respect to differential growth rates KB 3-1 and RT112 cells were seeded at 700 cells/well, RT112 (MDR1^+, UGT1A1) at 1000 cells/well and KB 3-1 (MDR1^+++) and KB 3-1 (MDR1^+++, CYP3A5) at 1200 cells/well. LS174T were seeded at 1.0×10^4 cells/well. […] Four well were treated with the same drug dilution. Cells were incubated for 3 days at 37° C. in a humidified 5% CO2 atmosphere.
(§4) A commercially available MTS assay system (Promega, Madison, USA) was used to determine growth inhibition and cell death according to the instructions of the manufacturer. Three days after adding the drugs, 20 μl of the combined MTS/PMS solution was added to each well of the 96-well culture plate. The plate was incubated for at least 45 min at 37° C. in a humidified 5% CO2 atmosphere and the absorbance at 492 nm was measured. The absorbance values of untreated control cells on each plate were set as 100% growth and used to calculate the remaining growth of drug treated cells. Untreated cells on the culture plates served as controls for unaffected growth and survival.
(§5) The drug concentration effecting a 50% inhibition of cell growth was defined as the IC50.

[2] = tested on: bladder cancer cell line RT112; assay: MTS cytotoxicity assay, growth inhibition, RT112; assay type: cell-based, human; details: RT112, 3 days treatment
Description: as §1, §2
Cells were seeded in 96-well culture plates 24 h prior to treatment. […]
as §4, with “Three days after adding the drugs, 20 μl of the combined MTS/PMS solution was added to each well of the 96-well culture plate.” left out, “Untreated cells on the culture plates served as controls for unaffected growth and survival.” left out

[3] = tested on: human epithelial cervical cancer cell line KB 3-1; assay type: cell-based
Description: as §1, §2, §3, §4, §5

KB 3-1 (MDR1^+++) cells = tested on: KB 3-1 (MDR1^+++) cells
Description: as §1, §2, §3, §4, §5

[4] = tested on: KB 3-1 (MDR1^+++, CYP3A5) cells
Description: as §1, §2, §3, §4, §5

[5] = tested on: RT112 (MDR1, UGT1A1) cells; details: for IC50 (50% inhibition of cell growth): RT112 (MDR1, UGT1A1), 3 days treatment
Description: as §1, §2, §3, §4, §5

MRP1 mRNA = MRP1 mRNA content in duodenal biopsies before and after rifampicin; assay type: in vivo, human; details: healthy volunteers
[6] = mass balance studies; cited from earlier work
[7] = irinotecan therapy, dose-limiting toxicity; cited from earlier work
[8] = within the first 60 days of treatment, colorectal cancer trials; cited from earlier work
[9] = Clinical study of peak plasma digoxin levels at steady state by MDR1 3435C>T genotype; assay type: in vivo, human; details: 14 healthy volunteers, oral digoxin, p=0.006 Mann Whitney U test
Text: Furthermore, the influence of the MDR1 genotype on intestinal uptake-related pharmacokinetics of digoxin was investigated in a clinical study at the University Medical Center, Charite in Berlin. Maximal digoxin blood levels (Cmax) at steady state were correlated with the MDR1 3435C>T genotype 14 healthy volunteers after oral application of digoxin. […] (p=0.006, Mann Whitney U test) and reflects the impact of this polymorphism on digoxin pharmacokinetics.

CCc1c2c(nc3ccc(O)cc13)-c1cc3c(c(=O)n1C2)COC(=O)[C@]3(O)CC [SN-38, 7-ethyl-10-hydroxycamptothecin]
IC50 (50% inhibition of cell growth) [1]: 0.005 µg/mL
efficacy relative to CPT-11 (growth inhibition and cell death) ([1]; stated for LS174T, RT112 and KB 3-1 together): 1000 fold
IC50 (50% inhibition of cell growth) [2]: 0.004 µg/mL
IC50 (50% inhibition of cell growth) [3]: 0.025 µg/mL
IC50 with R-Verapamil [3]: 15 ng/m
IC50 (50% inhibition of cell growth) (KB 3-1 (MDR1^+++) cells): 0.2 µg/mL
higher sensitivity after inhibition of MDR1 transport function with R-Verapamil (KB 3-1 (MDR1^+++) cells): 10 fold
increase of IC50 relative to KB 3-1 (KB 3-1 (MDR1^+++) cells): at least 8 times
sensitivity with R-Verapamil (KB 3-1 (MDR1^+++) cells): as sensitive as KB 3-1 cells
IC50 (50% inhibition of cell growth) [4]: > 0.2 µg/mL
higher resistance of RT112 (MDR1, UGT1A1) relative to RT112 [5]: 19 fold
IC50 (50% inhibition of cell growth) [5]: 0.075 µg/mL

COc1ccc(CCN(C)CCC[C@](C#N)(c2ccc(OC)c(OC)c2)C(C)C)cc1OC [R-Verapamil]
effect of addition of R-Verapamil on CPT-11 and SN-38 sensitivity [3]: only marginal effects

CO[C@H]1/C=C/O[C@@]2(C)Oc3c(C)c(O)c4c(O)c(c(/C=N/N5CCN(C)CC5)c(O)c4c3C2=O)NC(=O)/C(C)=C\C=C\[C@H](C)[C@H](O)[C@@H](C)[C@@H](O)[C@@H](C)[C@H](OC(C)=O)[C@@H]1C [rifampicin]
effect of rifampicin treatment on MRP1 mRNA expression (MRP1 mRNA): no effect

irinotecan [CPT-11]
IC50 (50% inhibition of cell growth) [1]: 1.5 µg/mL
IC50 (50% inhibition of cell growth) [2]: 2.5 µg/mL
IC50 with R-Verapamil ([3]; KB 3-1, 3 days, with R-Verapamil 10 μg/ml): 4.5 µg/mL
IC50 (50% inhibition of cell growth) ([3]; KB 3-1, 3 days, without R-Verapamil): 5 µg/mL
IC50 with R-Verapamil (KB 3-1 (MDR1^+++) cells; KB 3-1 (MDR1+++), 3 days, with R-Verapamil 10 μg/ml): 10 µg/mL
IC50 (50% inhibition of cell growth) (KB 3-1 (MDR1^+++) cells; KB 3-1 (MDR1+++), 3 days, without R-Verapamil): 85 µg/mL
IC50 of RT112 (MDR1, UGT1A1) compared to RT112 cells ([5]; RT112 (MDR1, UGT1A1) vs RT112, in words): two-times higher
IC50 (50% inhibition of cell growth) [5]: 4 µg/mL
total dose excreted in the feces [6]: 64%
diarrhea, occurrence in patients [7]: up to 88%
increase of irinotecan toxicity-related mortality [8]: ~3 times

C[C@H]1O[C@@H](O[C@H]2[C@@H](O)C[C@H](O[C@H]3[C@@H](O)C[C@H](O[C@H]4CC[C@@]5(C)[C@H](CC[C@@H]6[C@@H]5C[C@@H](O)[C@]5(C)[C@@H](C7=CC(=O)OC7)CC[C@]65O)C4)O[C@@H]3C)O[C@@H]2C)C[C@H](O)[C@@H]1O [digoxin]
Maximal digoxin blood levels (Cmax) at steady state, homozygous T vs C/C MDR1 3435C>T genotype [9]: statistically significantly different; also recorded: statistically significantly lower
